{"source": "patent US12653860B2", "about": "“Compositions and methods for editing beta-globin for treatment of hemaglobinopathies” (Vertex Pharmaceuticals Incorporated, priority 2019, dated 2026)", "key": {"[1]": {"tested_on": "PBMCs from a human donor with sickle cell disease", "experiment": "Hemoglobin expression by HPLC in edited patient-derived PBMCs", "format": "cell-based", "conditions": "compared to mock EP control cells, FIG. 34", "protocol": "It was further evaluated if editing of patient-derived PBMCs in the presence of i53 would yield high levels of correction of the HBB gene. […] The PBMCs were expanded in StemSpan SFEM II (1×)+StemSpan CC100 (1×)+Dexamethasone […]+hEPO 2IU/mL at 37° C. under normoxic conditions (20% O2 concentration). The cells were edited following five days of in vitro culture. […] On day 8, the cells were transferred to Phase 1 media, and differentiation to erythrocytes was performed through day 18 as described above. Efficiency of HDR at the HBB gene locus was evaluated on day 12 using the NGS assay described in Example 4. Also evaluated was the frequency of INDELs at the R02 cut-site as measured by NGS.\nHemoglobin expression was measured by HPLC analysis for edited PBMCs as described above."}, "[2]": {"tested_on": "AAVS1 locus in hTERT RPE-1 cells", "experiment": "HDR insertion of AAV GFP donor at AAVS1 locus in hTERT RPE-1 cells", "format": "cell-based, human", "conditions": "mRNA encoding i53; AAV 25,000 MOI; FIG. 7", "protocol": "RPE1 cells were lipofected with RNP comprised of Cas9 protein and gRNA targeting the AAVS1 locus (target sequence shown in SEQ ID NO: 3; spacer sequence shown in SEQ ID NO: 4). Cells were edited with 1 g Cas9 and 1 g gRNA. Cells were infected with AAV containing homology donor DNA encoding GFP (DJ serotype) as well as mRNA encoding i53 (mRNA ORF shown in SEQ ID NO: 69). […] HDR efficiency was determined by measuring the level of GFP fluorescence in the cells following gene-editing."}, "[3]": {"tested_on": "CFTR gene locus in HEK293 T cells", "experiment": "TIDE analysis of DSB repair at CFTR gene locus", "format": "cell-based", "protocol": "The effect of Nu7441 treatment on HDR was also evaluated at the CFTR gene locus in HEK293 T cells. To do so cells were electroporated with RNP comprising Cas9 and a gRNA targeting the CFTR gene locus (SEQ ID NO: 18; sgRNA target sequence identified by SEQ ID NO: 19). 2×10^5 cells were edited with 1 μM Cas9 and 1.5 μM gRNA. The cells were transfected with a ssODN donor (SEQ ID NO: 42). Cells were edited with 100 μM ssODN. The ssODN contains homology arms spanning both sides of the DSB induced by the Cas9-guide and is designed to include 3 additional base pairs (GCA) into the CFTR gene to aid detection of HDR. Cells were also treated with 5 μM Nu7441. Gene correction was assessed by TIDE analysis. TIDE analysis uses a pair of PCR reactions and standard capillary sequencing runs to identify mutations induced at the site of a DSB (see e.g., Brinkman (2014) Nucleic Acids Res 42:e168). The type of mutation induced at the DSB was indicative of the pathway used to repair the DSB. Formation of an indel comprising either an insertion or a deletion of bases was considered due to NHEJ repair; a deletion of 2-3 base pairs was considered due to MMEJ repair; while an insertion of 3 base pairs was considered due to HDR repair. Shown in FIGS. 4A-4B are mutations introduced at the DSB for cells treated with Nu7441 (FIG. 4B) compared to a DMSO negative control (FIG. 4A). […] This reduction in NHEJ repair in the presence of Nu7441 was evaluated with an additional ssODN donor (SEQ ID NO: 41)."}, "[4]": {"conditions": "Nu7441, either ssODN donor (SEQ ID NO: 41 or 42), FIG. 5"}}, "data": [{"compound": "i53: polypeptide inhibitor of 53BP1 (SEQ ID NO: 70), delivered as mRNA (ORF SEQ ID NO: 69)", "values": [{"measurement": "expression of HbA", "setting": "[1]", "result": "increased expression of HbA"}, {"measurement": "expression of HbS", "setting": "[1]", "result": "significant reduction in expression of HbS"}, {"measurement": "HDR efficiency over AAV alone", "setting": "[2]", "result": "increase in HDR efficiency"}]}, {"compound": "O=c1cc(N2CCOCC2)oc2c(-c3cccc4c3sc3ccccc34)cccc12", "note": "[Nu7441]", "values": [{"measurement": "HDR repair (+3 base pair insertion)", "setting": "[3]; 5 μM Nu7441, ssODN SEQ ID NO: 42, FIGS. 4A-4B", "result": "much higher levels of HDR repair"}, {"measurement": "indel formation (+1, 0, or −1 base pair)", "setting": "[3]; 5 μM Nu7441, ssODN SEQ ID NO: 42, vs DMSO negative control, FIGS. 4A-4B", "result": "dramatically reduced"}, {"measurement": "HDR repair", "setting": "[3]; [4]", "result": "increase in HDR repair"}, {"measurement": "indel formation due to NHEJ repair", "setting": "[3]; [4]", "result": "decreased levels of indel formation"}]}]}
